Test results reported in US4178442A, “Novel cinnamoyles piperazines and homopiperazines, the method of preparing them and their application in therapeutics” (Delalande S. A., priority 1977, dated 1979).
Where two headings read alike, the source gives them in different places.

What was measured:
anaesthetized dog = assay: Antiangorous activity on anaesthetized dog: consumption of oxygen in the left ventricule and cardiac effort (KATZ's index); format: in vivo; settings: for inhibition in vivo at […]: 0.15 mg/kg i.v. slow perfusion
Method in brief: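 Katz index taken as mean arterial pressure multiplied by ECG (D2) heart rate, and myocardial O2 use as coronary sinus flow via modified Morawitz cannula times coronary arteriovenous O2 difference. Animals: pentobarbital-anaesthetized dogs (30 mg/kg i.v.), test compounds infused slowly intravenously.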

in vivo = settings: iv; for LD50: read-out: Toxicity: LD50; for mortality: 400 mg/kg i.v., read-out: Toxicity (Mortality)
Source text: *LD50 or percentage of mortality which is given between brackets

[1] = Canis lupus familiaris, iv, 2.3 mg/kg i.v. slow perfusion, read-out: Diminution in consumption of O2
[2] = Canis lupus familiaris, iv, 2.3 mg/kg i.v. slow perfusion, read-out: Diminution in the cardiac effort (IK)
[3] = 0.625 mg/kg i.v. slow perfusion
[4] = Canis lupus familiaris, iv, 0.625 mg/kg i.v. slow perfusion, read-out: Diminution in consumption of O2
[5] = Canis lupus familiaris, iv, 0.625 mg/kg i.v. slow perfusion, read-out: Diminution in the cardiac effort (IK)
[6] = Canis lupus familiaris, iv, read-out: Diminution in consumption of O2
[7] = Canis lupus familiaris, iv, read-out: Diminution in the cardiac effort (IK)
[8] = Canis lupus familiaris, iv, 2.5 mg/kg i.v. slow perfusion, read-out: Diminution in consumption of O2
[9] = Canis lupus familiaris, iv, 2.5 mg/kg i.v. slow perfusion, read-out: Diminution in the cardiac effort (IK)

SMILES	LD50 (in vivo)	mortality (in vivo)	Diminution in consumption of O2: in time (anaesthetized dog; 2.5 mg/kg i.v. slow perfusion)	inhibition in vivo at 2.5 mg/kg (anaesthetized dog; [8])	inhibition in vivo at 2.5 mg/kg (anaesthetized dog; [9])	Diminution in the cardiac effort (IK): in time (anaesthetized dog; 2.5 mg/kg i.v. slow perfusion)	further results
COc1cc(/C=C/C(=O)N2CCN(CC(O)CSc3ccc(C)cc3)CC2)cc(OC)c1OC (centres unmarked) [770 059]	91 mg/kg						Diminution in consumption of O2: in time (anaesthetized dog; 5 mg/kg i.v. slow perfusion): 15 min; Diminution in the cardiac effort (IK): in time (anaesthetized dog; 5 mg/kg i.v. slow perfusion): 15 min; inhibition in vivo at 5 mg/kg (anaesthetized dog; Canis lupus familiaris, iv, 5 mg/kg i.v. slow perfusion, read-out: Diminution in consumption of O2): 64%; inhibition in vivo at 5 mg/kg (anaesthetized dog; Canis lupus familiaris, iv, 5 mg/kg i.v. slow perfusion, read-out: Diminution in the cardiac effort (IK)): 12%
COc1cc(/C=C/C(=O)N2CCN(CC(O)COc3cc(OC)c(OC)c(OC)c3)CC2)cc(OC)c1OC (centres unmarked) [760 506]	182 mg/kg						Diminution in consumption of O2: in time (anaesthetized dog; 2.3 mg/kg i.v. slow perfusion): 60 min; Diminution in the cardiac effort (IK): in time (anaesthetized dog; 2.3 mg/kg i.v. slow perfusion): 60 min; inhibition in vivo at 2.3 mg/kg (anaesthetized dog; [1]): 67%; inhibition in vivo at 2.3 mg/kg (anaesthetized dog; [2]): 26%
CNC(=O)Cc1ccc(OCC(O)CN2CCN(C(=O)/C=C/c3cc(OC)c(OC)c(OC)c3)CC2)c2c1OCCO2 (centres unmarked) [770 382]		30%					Diminution in consumption of O2: in time (anaesthetized dog; [3]): 15 min; Diminution in the cardiac effort (IK): in time (anaesthetized dog; [3]): 15 min; inhibition in vivo at 0.625 mg/kg (anaesthetized dog; [4]): 36%; inhibition in vivo at 0.625 mg/kg (anaesthetized dog; [5]): 16%
COc1cc(C(C)=O)ccc1OCC(O)CN1CCN(C(=O)/C=C/c2cc(OC)c(OC)c(OC)c2)CC1 (centres unmarked) [770 073]	158 mg/kg						Diminution in consumption of O2: in time (anaesthetized dog; 0.12 mg/kg i.v. slow perfusion): 30 min; Diminution in the cardiac effort (IK): in time (anaesthetized dog; 0.12 mg/kg i.v. slow perfusion): 15 min; inhibition in vivo at 0.12 mg/kg (anaesthetized dog; Canis lupus familiaris, iv, 0.12 mg/kg i.v. slow perfusion, read-out: Diminution in consumption of O2): 24%; inhibition in vivo at 0.12 mg/kg (anaesthetized dog; Canis lupus familiaris, iv, 0.12 mg/kg i.v. slow perfusion, read-out: Diminution in the cardiac effort (IK)): 16%
COc1cc(/C=C/C(=O)N2CCN(CC(O)COc3ccc(C(=O)Nc4ccccc4)c4c3OCCO4)CC2)cc(OC)c1OC (centres unmarked) [770 848]		10%					inhibition in vivo at […] (anaesthetized dog; [6]): 41%; inhibition in vivo at […] (anaesthetized dog; [7]): 5%
CNC(=O)Nc1ccc(OCC(O)CN2CCN(C(=O)/C=C/c3cc(OC)c(OC)c(OC)c3)CC2)c2c1OCCO2 (centres unmarked) [770 077]		0%					inhibition in vivo at […] (anaesthetized dog; [6]): 44%; inhibition in vivo at […] (anaesthetized dog; [7]): 28%
COc1cc(/C=C/C(=O)N2CCN(CC(O)COc3ccc(NC(=O)NC(C)C)c4c3OCCO4)CC2)cc(OC)c1OC (centres unmarked) [770 630]		40%					inhibition in vivo at […] (anaesthetized dog; [6]): 58%; inhibition in vivo at […] (anaesthetized dog; [7]): 32%
COc1cc(NC(C)=O)ccc1OCC(O)CN1CCN(C(=O)/C=C/c2cc(OC)c(OC)c(OC)c2)CC1 (centres unmarked) [770 487]		30%	60 min	47%	14%		
COc1cc(/C=C/C(=O)N2CCN(CC(O)COc3ccc(C(C)=O)c4c3OCCO4)CC2)cc(OC)c1 (centres unmarked) [770 538]	198 mg/kg		15 min	54%	28%	25 min	
CNC(=O)Nc1ccc(OCC(O)CN2CCN(C(=O)/C=C/c3cc(OC)c(OC)c(OC)c3)CC2)cc1 (centres unmarked) [770 056]	160 mg/kg						Diminution in consumption of O2: in time (anaesthetized dog; [3]): 15 min; Diminution in the cardiac effort (IK): in time (anaesthetized dog; [3]): 15 min; inhibition in vivo at 0.625 mg/kg (anaesthetized dog; [4]): 49%; inhibition in vivo at 0.625 mg/kg (anaesthetized dog; [5]): 22%
COc1cc(/C=C/C(=O)N2CCN(CC(O)COc3ccc(O)c4c3OCCO4)CC2)cc(OC)c1OC (centres unmarked) [780 120, 1-[3-(4-hydroxy-2,3-ethylenedioxy)phenoxy-2-hydroxy]propyl-4-(3,4,5-trimethoxy-cinnamoyl)piperazine, hydrated chlorhydrate]	340 mg/kg		30 min	65%	29%	15 min	
COc1cc(/C=C/C(=O)N2CCN(CC(O)COc3cccc4c3CCCC4=O)CC2)cc(OC)c1OC (centres unmarked) [760 986]	218 mg/kg		60 min	61%	27%	60 min	
COc1cc(/C=C/C(=O)N2CCN(CC(O)COc3ccc(NC(=O)NC4CCCCC4)c4c3OCCO4)CC2)cc(OC)c1OC (centres unmarked) [770 081]	148 mg/kg						Diminution in consumption of O2: in time (anaesthetized dog; 0.14 mg/kg i.v. slow perfusion): 53 min; Diminution in the cardiac effort (IK): in time (anaesthetized dog; 0.14 mg/kg i.v. slow perfusion): 15 min; inhibition in vivo at 0.14 mg/kg (anaesthetized dog; Canis lupus familiaris, iv, 0.14 mg/kg i.v. slow perfusion, read-out: Diminution in consumption of O2): 58%; inhibition in vivo at 0.14 mg/kg (anaesthetized dog; Canis lupus familiaris, iv, 0.14 mg/kg i.v. slow perfusion, read-out: Diminution in the cardiac effort (IK)): 20%
COc1cc(/C=C/C(=O)N2CCN(CC(O)COc3ccc(CC#N)cc3)CC2)cc(OC)c1OC (centres unmarked) [770 488]	225 mg/kg		30 min	78%	17%	15 min	
CCc1ccc(OCC(O)CN2CCN(C(=O)/C=C/c3cc(OC)c(OC)c(OC)c3)CC2)c2c1OCCO2 (centres unmarked) [770 142]	116 mg/kg						Diminution in consumption of O2: in time (anaesthetized dog; 1.1 mg/kg i.v. slow perfusion): 30 min; inhibition in vivo at 1.1 mg/kg (anaesthetized dog; Canis lupus familiaris, iv, 1.1 mg/kg i.v. slow perfusion, read-out: Diminution in consumption of O2): 29%
COc1cc(/C=C/C(=O)N2CCN(CC(O)COc3ccc(C(C)=O)c4c3OCO4)CC2)cc(OC)c1OC (centres unmarked) [780 308]		10%	45 min	49%	37%	45 min	
CNC(=O)c1ccc(OCC(O)CN2CCN(C(=O)/C=C/c3cc(OC)c(OC)c(OC)c3)CC2)c(OC)c1 (centres unmarked) [770 855]	260 mg/kg		60 min	60%	45%	60 min	
COc1cc(/C=C/C(=O)N2CCN(CC(O)COc3cc(C(C)=O)cc4c3OCCO4)CC2)cc(OC)c1OC (centres unmarked) [770 590]	290 mg/kg		45 min	60%	33%	45 min	
COc1cc(/C=C/C(=O)N2CCN(CC(O)COc3ccc(C(C)=O)cc3C)CC2)cc(OC)c1OC (centres unmarked) [770 993, 1-[3-(2-methyl-4-acetyl)phenyl-2-hydroxy]-propyl-4-(3,4,5-trimethoxycinnamoyl)piperazine chlorhydrate]	10 mg/kg		23 min	53%	15%	13 min	
COc1cc(/C=C/C(=O)N2CCN(CC(O)COc3ccc4c(c3)OCO4)CC2)cc(OC)c1OC (centres unmarked) [760 529]	115 mg/kg						Diminution in consumption of O2: in time (anaesthetized dog; 2.3 mg/kg i.v. slow perfusion): 30 min; Diminution in the cardiac effort (IK): in time (anaesthetized dog; 2.3 mg/kg i.v. slow perfusion): 15 min; inhibition in vivo at 2.3 mg/kg (anaesthetized dog; [1]): 53%; inhibition in vivo at 2.3 mg/kg (anaesthetized dog; [2]): 19%
COc1cc(OC)cc(OCC(O)CN2CCN(C(=O)/C=C/c3cc(OC)c(OC)c(OC)c3)CC2)c1 (centres unmarked) [760 620]	285 mg/kg		30 min	22%	10%	30 min	
COc1cc(/C=C/C(=O)N2CCN(CCCOc3ccc(C(C)=O)c4c3OCCO4)CC2)cc(OC)c1OC [760 939, 1-[3-(4-acetyl-2,3-ethylenedioxy)phenoxy]-propyl-4-(3,4,5-trimethoxycinnamoyl)piperazine]		20%					Diminution in consumption of O2: in time (anaesthetized dog; 1.25 mg/kg i.v. slow perfusion): 30 min; Diminution in the cardiac effort (IK): in time (anaesthetized dog; 1.25 mg/kg i.v. slow perfusion): 23 min; inhibition in vivo at 1.25 mg/kg (anaesthetized dog; Canis lupus familiaris, iv, 1.25 mg/kg i.v. slow perfusion, read-out: Diminution in consumption of O2): 27%; inhibition in vivo at 1.25 mg/kg (anaesthetized dog; Canis lupus familiaris, iv, 1.25 mg/kg i.v. slow perfusion, read-out: Diminution in the cardiac effort (IK)): 11%
